Where two headings read alike, the source gives them in different places.
Target: T1, ER (Homo sapiens, UniProt P03372)
T1 construct: host or cells: T47D and MCF7 human breast cancer cells
T1 sequence (P03372 1-595): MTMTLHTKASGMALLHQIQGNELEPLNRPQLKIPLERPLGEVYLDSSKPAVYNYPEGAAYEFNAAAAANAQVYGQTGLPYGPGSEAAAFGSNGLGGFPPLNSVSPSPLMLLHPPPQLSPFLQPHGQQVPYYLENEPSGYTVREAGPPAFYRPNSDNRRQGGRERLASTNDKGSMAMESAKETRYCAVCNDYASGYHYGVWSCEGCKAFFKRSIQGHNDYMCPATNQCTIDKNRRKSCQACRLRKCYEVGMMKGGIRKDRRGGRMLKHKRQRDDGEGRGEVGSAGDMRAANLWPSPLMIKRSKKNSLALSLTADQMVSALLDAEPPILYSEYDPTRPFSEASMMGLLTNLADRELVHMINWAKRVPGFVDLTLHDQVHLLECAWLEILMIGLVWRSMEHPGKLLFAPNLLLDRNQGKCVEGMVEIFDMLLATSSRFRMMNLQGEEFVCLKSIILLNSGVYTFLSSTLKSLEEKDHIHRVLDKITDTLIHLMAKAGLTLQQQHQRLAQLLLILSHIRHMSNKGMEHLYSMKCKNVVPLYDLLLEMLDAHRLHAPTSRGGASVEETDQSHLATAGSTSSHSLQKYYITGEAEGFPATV
Experiment: ER degradation activity, in-cell western blot analysis in T47D cells
Assay type: cell-based
Summary of the method: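 In-cell western, T47D; compounds 16 h, 0.5% DMSO final; anti-rabbit-680/anti-mouse-800 secondaries, 1 h RT, dark; read on CLX imager. ER % vs untreated/DMSO wells (100%).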

[1] = 16 hours, Table A does not say which cell line (T47D or MCF7), read-out: Potency (DC50)
[2] = compounds 16 hours, Table A does not say whether T47D or MCF7, read-out: Potency (DC50)

Q: How did the DC50 [1] turn out when `C[C@@H]1Cc2c([nH]c3ccccc23)[C@@H](c2c(F)cc(N3CCC(N4CCC(CN5Cc6cc7c(cc6C5)C(=O)N(C5CCC(=O)NC5=O)C7=O)CC4)CC3)cc2F)N1CC(F)F` (stereo partly drawn) [E 118, 6-((1′-(4-((1R,3R)-2-(2,2-difluoroethyl)-3-methyl-2,3,4,9-tetrahydro-1H-pyrido[3,4-b]indol-1-yl)-3,5-difluorophenyl)-[1,4′-bipiperidin]-4-yl)methyl)-2-(2,6-dioxopiperidin-3-yl)-6,7-dihydropyrrolo[3,4-f]isoindole-1,3(2H,5H)-dione] was run?
A: Its DC50 is over 100 nM.

Q: `C[C@@H]1Cc2cc(O)ccc2[C@@H](c2c(F)cc(C3=CCC4(CC3)CCN(C(=O)CN3Cc5cc6c(cc5C3)C(=O)N(C3CCC(=O)NC3=O)C6=O)CC4)cc2F)N1CC(F)F` (stereo partly drawn) [E 446, 6-(2-(9-(4-((1S,3R)-2-(2,2-difluoroethyl)-6-hydroxy-3-methyl-1,2,3,4-tetrahydroisoquinolin-1-yl)-3,5-difluorophenyl)-3-azaspiro[5.5]undec-8-en-3-yl)-2-oxoethyl)-2-(2,6-dioxopiperidin-3-yl)-6,7-dihydropyrrolo[3,4-f]isoindole-1,3(2H,5H)-dione tetrahydroisoquinolin] was tested. Which DC50 [2] did it give?
A: Its DC50 is over 100 nM.

Q: With `O=C1CCC(N2Cc3cc4c(cc3C2=O)CN(CC(=O)N2CCC3(CC2)CN(c2ccc([C@@H]5c6ccc(O)cc6CC[C@@H]5c5ccccc5)cc2)C3)C4)C(=O)N1` (mixture of isomers) [E 5, rac-3-(6-(2-(2-(4-((1R,2S)-6-hydroxy-2-phenyl-1,2,3,4-tetrahydronaphthalen-1-yl)phenyl)-2,7-diazaspiro[3.5]nonan-7-yl)-2-oxoethyl)-1-oxo-3,5,6,7-tetrahydropyrrolo[3,4-f]isoindol-2(1H)-yl)piperidine-2,6-dione] as the compound, how does the DC50 [1] read?
A: The DC50 was under 10 nM.

Q: With `O=C1CCC(N2C(=O)c3cc4c(cc3C2=O)CN(C(=O)CN2CCC3(CC2)CCN(c2ccc([C@@H]5c6ccc(O)cc6CC[C@@H]5c5ccc(F)cc5)cc2)C3)C4)C(=O)N1` (mixture of isomers) [E 152, Rac-2-(2,6-dioxopiperidin-3-yl)-6-(2-(2-(4-((1R,2S)-2-(4-fluorophenyl)-6-hydroxy-1,2,3,4-tetrahydronaphthalen-1-yl)phenyl)-2,8-diazaspiro[4.5]decan-8-yl)acetyl)-6,7-dihydropyrrolo[3,4-f]isoindole-1,3(2H,5H)-dione] as the compound, how does the DC50 [1] read?
A: The DC50 was over 100 nM.

Q: `C[C@@H]1Cc2c([nH]c3ccccc23)[C@H](c2c(F)cc(CN3CCC4(CCC(C(=O)N5Cc6cc7c(cc6C5)C(=O)N(C5CCC(=O)NC5=O)C7=O)CC4)CC3)cc2F)N1CC(F)F` (stereo partly drawn) [E 383, 6-(3-(4-((1S,3R)-2-(2,2-difluoroethyl)-3-methyl-2,3,4,9-tetrahydro-1H-pyrido[3,4-b]indol-1-yl)-3,5-difluorobenzyl)-3-azaspiro[5.5]undecane-9-carbonyl)-2-(2,6-dioxopiperidin-3-yl)-6,7-dihydropyrrolo[3,4-f]isoindole-1,3(2H,5H)-dione] was tested. Which DC50 [1] did it give?
A: Its DC50 is over 100 nM.

Q: With `C[C@@H]1Cc2c([nH]c3ccccc23)[C@@H](c2c(F)cc(N3CCC(CN4CCC(N5Cc6cc7c(cc6C5)C(=O)N(C5CCC(=O)NC5=O)C7=O)C4)CC3)cc2F)N1CC(F)F` (stereo partly drawn) [E 129, 6-(1-((1-(4-((1R,3R)-2-(2,2-difluoroethyl)-3-methyl-2,3,4,9-tetrahydro-1H-pyrido[3,4-b]indol-1-yl)-3,5-difluorophenyl)piperidin-4-yl)methyl)pyrrolidin-3-yl)-2-(2,6-dioxopiperidin-3-yl)-6,7-dihydropyrrolo[3,4-f]isoindole-1,3(2H,5H)-dione] as the compound, how does the DC50 [1] read?
A: Its DC50 is under 10 nM.

Q: With `C[C@@H]1Cc2cc(O)ccc2[C@@H](c2c(F)cc(N3CCC4(CCN(CC(=O)N5Cc6cc7c(cc6C5)C(=O)N(C5CCC(=O)NC5=O)C7)C4)C3)cc2F)N1CC(C)(F)F` (stereo partly drawn) [E 32, 3-(6-(2-(7-(4-((1S,3R)-2-(2,2-difluoropropyl)-6-hydroxy-3-methyl-1,2,3,4-tetrahydroisoquinolin-1-yl)-3,5-difluorophenyl)-2,7-diazaspiro[4.4]nonan-2-yl)acetyl)-1-oxo-3,5,6,7-tetrahydropyrrolo[3,4-f]isoindol-2(1H)-yl)piperidine-2,6-dione] as the compound, how does the DC50 [1] read?
A: The DC50 was over 100 nM.

Q: `C[C@@H]1Cc2c([nH]c3ccccc23)[C@@H](c2c(F)cc(N3CCC4(CCN(C(=O)CN5Cc6cc7c(cc6C5)C(=O)N(C5CCC(=O)NC5=O)C7=O)CC4)C3)cc2F)N1CC(F)F` (stereo partly drawn) [E 135, 6-(2-(2-(4-((1R,3R)-2-(2,2-difluoroethyl)-3-methyl-2,3,4,9-tetrahydro-1H-pyrido[3,4-b]indol-1-yl)-3,5-difluorophenyl)-2,8-diazaspiro[4.5]decan-8-yl)-2-oxoethyl)-2-(2,6-dioxopiperidin-3-yl)-6,7-dihydropyrrolo[3,4-f]isoindole-1,3(2H,5H)-dione] was tested. Which DC50 [1] did it give?
A: Its DC50 is under 10 nM.

Q: With `O=C1CCC(N2C(=O)c3cc4c(cc3C2=O)CN(CC2CCN(C(=O)C3(F)CCN(c5ccc([C@@H]6c7ccc(O)cc7CC[C@@H]6c6ccccc6)cc5)CC3)CC2)C4)C(=O)N1` (stereo partly drawn) [E 208, 2-(2,6-dioxopiperidin-3-yl)-6-((1-(4-fluoro-1-(4-((1R,2S)-6-hydroxy-2-phenyl-1,2,3,4-tetrahydronaphthalen-1-yl)phenyl)piperidine-4-carbonyl)piperidin-4-yl)methyl)-6,7-dihydropyrrolo[3,4-f]isoindole-1,3(2H,5H)-dione] as the compound, how does the DC50 [1] read?
A: The DC50 was over 100 nM.

Q: How did the DC50 [1] turn out when `C[C@@H]1Cc2c([nH]c3ccccc23)[C@@H](c2c(F)cc(-c3ccc(C(=O)N4CCC(N5Cc6cc7c(cc6C5)C(=O)N(C5CCC(=O)NC5=O)C7=O)CC4)nc3)cc2F)N1CC(F)F` (stereo partly drawn) [E 325, 6-(1-(5-(4-((1R,3R)-2-(2,2-difluoroethyl)-3-methyl-2,3,4,9-tetrahydro-1H-pyrido[3,4-b]indol-1-yl)-3,5-difluorophenyl)picolinoyl)piperidin-4-yl)-2-(2,6-dioxopiperidin-3-yl)-6,7-dihydropyrrolo[3,4-f]isoindole-1,3(2H,5H)-dione] was run?
A: Its DC50 is 10 to 100 nM.

Q: With `C[C@@H]1Cc2c([nH]c3ccccc23)[C@@H](c2ccc(C3CCC(C(=O)N4CCC(N5Cc6cc7c(cc6C5)C(=O)N(C5CCC(=O)NC5=O)C7=O)CC4)CC3)c(F)c2)N1CC(F)F` (stereo partly drawn) [E 475, 6-(1-(4-(4-((1R,3R)-2-(2,2-difluoroethyl)-3-methyl-2,3,4,9-tetrahydro-1H-pyrido[3,4-b]indol-1-yl)-2-fluorophenyl)cyclohexane-1-carbonyl)piperidin-4-yl)-2-(2,6-dioxopiperidin-3-yl)-6,7-dihydropyrrolo[3,4-f]isoindole-1,3(2H,5H)-dione] as the compound, how does the DC50 [2] read?
A: The DC50 was 10 to 100 nM.

Q: `O=C1CCC(N2C(=O)c3cc4c(cc3C2=O)CN(CC(=O)N2CCC(Oc3ccc([C@@H]5c6ccc(O)cc6CC[C@@H]5c5ccccc5)cc3)CC2)C4)C(=O)N1` (stereo partly drawn) [E 489, 2-(2,6-dioxopiperidin-3-yl)-6-(2-(4-(4-((1R,2S)-6-hydroxy-2-phenyl-1,2,3,4-tetrahydronaphthalen-1-yl)phenoxy)piperidin-1-yl)-2-oxoethyl)-6,7-dihydropyrrolo[3,4-f]isoindole-1,3(2H,5H)-dione] was tested. Which DC50 [2] did it give?
A: The DC50 was 10 to 100 nM.

Q: `C[C@@H]1Cc2c([nH]c3ccccc23)[C@@H](c2c(F)cc(C3CCN(C(=O)C4CCC(N5Cc6cc7c(cc6C5)C(=O)N(C5CCC(=O)NC5=O)C7=O)CC4)CC3)cc2F)N1CC(F)F` (stereo partly drawn) [E 348, 6-(4-(4-(4-((1R,3R)-2-(2,2-difluoroethyl)-3-methyl-2,3,4,9-tetrahydro-1H-pyrido[3,4-b]indol-1-yl)-3,5-difluorophenyl)piperidine-1-carbonyl)cyclohexyl)-2-(2,6-dioxopiperidin-3-yl)-6,7-dihydropyrrolo[3,4-f]isoindole-1,3(2H,5H)-dione] was tested. Which DC50 [1] did it give?
A: Its DC50 is 10 to 100 nM.

— patent publication US20240190880A1 (THE REGENTS OF THE UNIVERSITY OF MICHIGAN, priority 2021, published 2024)
